Earlier results in patent US20220130517A1, “PS[…] VARIOUS MENTAL HEALTH DISORDERS” (Ketamine SLC, priority 2020, published 2022).

System: mental health disorder
Conditions: IV drip over 40 minutes, 0.5 mg/kg per session, six sessions over twelve days; some patients

CNC1(c2ccccc2Cl)CCCCC1=O (stereo not shown) [ketamine]
relief from the symptoms of mental health disorder: some patients experience relief from the symptoms of their mental health disorder for a period of time including weeks and/or months
